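The compound was tested at five concentrations on cells cultured in 96-well plates, with a 48-hour exposure period. The concentration for full growth arrest is given as TGI.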
Columns and labels:
Assay in all cases: growth of human tumour cells (NCI), 48 h
OVCAR-3 ovarian = system: OVCAR-3 ovarian
HT29 colon = system: HT29 colon
DLD-1 colon = system: DLD-1 colon
DMS 273 small cell lung = system: DMS 273 small cell lung
HCT-15 colon = system: HCT-15 colon
EKVX NSCLC = system: EKVX NSCLC
CAKI-1 renal = system: CAKI-1 renal
SK-MEL-2 melanoma = system: SK-MEL-2 melanoma
LXFL 529 NSCLC = system: LXFL 529 NSCLC
A549 NSCLC = system: A549 NSCLC
HOP-92 NSCLC = system: HOP-92 NSCLC
HL-60(TB) leukemia = system: HL-60(TB) leukemia
K-562 leukemia = system: K-562 leukemia
SNB-75 CNS = system: SNB-75 CNS
SN12C renal = system: SN12C renal
MALME-3M melanoma = system: MALME-3M melanoma
COLO 205 colon = system: COLO 205 colon
NCI-H522 lung = system: NCI-H522 lung
UACC-257 melanoma = system: UACC-257 melanoma
OVCAR-8 ovarian = system: OVCAR-8 ovarian
RPMI-8226 leukemia = system: RPMI-8226 leukemia
M19-MEL melanoma = system: M19-MEL melanoma
NCI-H23 lung = system: NCI-H23 lung
HCC-2998 colon = system: HCC-2998 colon
U251 CNS = system: U251 CNS
TK-10 renal = system: TK-10 renal
XF 498 CNS = system: XF 498 CNS
OVCAR-4 ovarian = system: OVCAR-4 ovarian
SK-OV-3 ovarian = system: SK-OV-3 ovarian
SF-268 CNS = system: SF-268 CNS
CCRF-CEM leukemia = system: CCRF-CEM leukemia
LOX IMVI melanoma = system: LOX IMVI melanoma
MOLT-4 leukemia = system: MOLT-4 leukemia
KM20L2 colon = system: KM20L2 colon
SNB-19 CNS = system: SNB-19 CNS
NCI-H226 lung = system: NCI-H226 lung
KM12 colon = system: KM12 colon
SF-295 CNS = system: SF-295 CNS
SK-MEL-28 melanoma = system: SK-MEL-28 melanoma
HOP-62 NSCLC = system: HOP-62 NSCLC
M14 melanoma = system: M14 melanoma
IGROV1 ovarian = system: IGROV1 ovarian
SK-MEL-5 melanoma = system: SK-MEL-5 melanoma
SR leukemia = system: SR leukemia
786-0 renal = system: 786-0 renal
HCT-116 colon = system: HCT-116 colon
OVCAR-5 ovarian = system: OVCAR-5 ovarian
NCI-H460 lung = system: NCI-H460 lung
RXF 393 renal = system: RXF 393 renal
SF-539 CNS = system: SF-539 CNS
ACHN renal = system: ACHN renal
HOP-18 NSCLC = system: HOP-18 NSCLC
UACC-62 melanoma = system: UACC-62 melanoma
UO-31 renal = system: UO-31 renal
SNB-78 CNS = system: SNB-78 CNS
SW-620 colon = system: SW-620 colon

Q: How did the TGI (OVCAR-3 ovarian) turn out when `COc1ccc(-c2csc(=[N+]3CCCCC3)s2)cc1` was run?
A: 31.6 µM

Q: What about the TGI (HT29 colon) of the same compound?
A: 29.9 µM

Q: And the TGI (DLD-1 colon)?
A: > 100 µM

Q: And the TGI (DMS 273 small cell lung)?
A: 13.3 µM

Q: What about the TGI (HCT-15 colon) of the same compound?
A: > 100 µM

Q: And the TGI (EKVX NSCLC)?
A: > 100 µM

Q: What about the TGI (CAKI-1 renal) of the same compound?
A: 8.42 µM

Q: What about the TGI (SK-MEL-2 melanoma) of the same compound?
A: 16.6 µM

Q: And the TGI (LXFL 529 NSCLC)?
A: 26.9 µM

Q: And the TGI (A549 NSCLC)?
A: > 100 µM

Q: What about the TGI (HOP-92 NSCLC) of the same compound?
A: 7.73 µM

Q: And the TGI (HL-60(TB) leukemia)?
A: 10.2 µM

Q: What about the TGI (K-562 leukemia) of the same compound?
A: 24.2 µM

Q: And the TGI (SNB-75 CNS)?
A: 8.22 µM

Q: What about the TGI (SN12C renal) of the same compound?
A: > 100 µM

Q: What about the TGI (MALME-3M melanoma) of the same compound?
A: 13.1 µM

Q: What about the TGI (COLO 205 colon) of the same compound?
A: 2.85 µM

Q: What about the TGI (NCI-H522 lung) of the same compound?
A: 5.17 µM

Q: And the TGI (UACC-257 melanoma)?
A: 26.6 µM

Q: What about the TGI (OVCAR-8 ovarian) of the same compound?
A: > 100 µM

Q: What about the TGI (RPMI-8226 leukemia) of the same compound?
A: 8.36 µM

Q: What about the TGI (M19-MEL melanoma) of the same compound?
A: 11.4 µM

Q: And the TGI (NCI-H23 lung)?
A: 6.58 µM

Q: What about the TGI (HCC-2998 colon) of the same compound?
A: > 100 µM

Q: What about the TGI (U251 CNS) of the same compound?
A: > 100 µM

Q: And the TGI (TK-10 renal)?
A: > 100 µM

Q: What about the TGI (XF 498 CNS) of the same compound?
A: 17.8 µM

Q: And the TGI (OVCAR-4 ovarian)?
A: 36.1 µM

Q: What about the TGI (SK-OV-3 ovarian) of the same compound?
A: 17.6 µM

Q: And the TGI (SF-268 CNS)?
A: 23.5 µM

Q: And the TGI (CCRF-CEM leukemia)?
A: 14.6 µM

Q: What about the TGI (LOX IMVI melanoma) of the same compound?
A: > 100 µM

Q: And the TGI (MOLT-4 leukemia)?
A: 10.3 µM

Q: And the TGI (KM20L2 colon)?
A: 24 µM

Q: What about the TGI (SNB-19 CNS) of the same compound?
A: > 100 µM

Q: What about the TGI (NCI-H226 lung) of the same compound?
A: 9.37 µM

Q: And the TGI (KM12 colon)?
A: 18.1 µM

Q: What about the TGI (SF-295 CNS) of the same compound?
A: 8.73 µM

Q: What about the TGI (SK-MEL-28 melanoma) of the same compound?
A: 29.7 µM

Q: What about the TGI (HOP-62 NSCLC) of the same compound?
A: 8.06 µM

Q: What about the TGI (M14 melanoma) of the same compound?
A: > 100 µM

Q: And the TGI (IGROV1 ovarian)?
A: > 100 µM

Q: And the TGI (SK-MEL-5 melanoma)?
A: 4.76 µM

Q: And the TGI (SR leukemia)?
A: 11.2 µM

Q: And the TGI (786-0 renal)?
A: > 100 µM

Q: What about the TGI (HCT-116 colon) of the same compound?
A: 27.8 µM

Q: What about the TGI (OVCAR-5 ovarian) of the same compound?
A: 76.8 µM

Q: And the TGI (NCI-H460 lung)?
A: 44.8 µM

Q: And the TGI (RXF 393 renal)?
A: 56.5 µM

Q: What about the TGI (SF-539 CNS) of the same compound?
A: 95.3 µM

Q: And the TGI (ACHN renal)?
A: > 100 µM

Q: What about the TGI (HOP-18 NSCLC) of the same compound?
A: 83 µM

Q: What about the TGI (UACC-62 melanoma) of the same compound?
A: 24.1 µM

Q: And the TGI (UO-31 renal)?
A: > 100 µM

Q: What about the TGI (SNB-78 CNS) of the same compound?
A: > 100 µM

Q: What about the TGI (SW-620 colon) of the same compound?
A: > 100 µM

Reference: PubChem BioAssay (NCI)
